Measured values from patent US8815872B2, “Macrocyclics pyrimidines as aurora kinase inhibitors” (Merck Patent GmbH, priority 2008, dated 2014).

Key:
Assay in all cases: Other kinases, single-concentration inhibition (Table 3)
Conditions in all cases: 1 μM
Abl(T315I)(h) = target: T1, Abl(T315I)(h) (Homo sapiens, UniProt P00519, T315I); format: biochemical
T1 construct: purchased Caliper Life Sciences
Description: (§1) The Aurora and other kinase assays described here were performed on two Caliper Life Sciences systems, the LC3000 and the Desktop Profiler. These provide data on enzyme activity via measurement of the relative amounts of phosphorylated or unphosphorylated fluorescently labelled substrate peptide at the end of an enzymatic reaction. These different states of peptide are resolved by applying a potential difference across the sample. The presence of a charged phosphate group on the product (as opposed to the substrate) causes a different peptide mobility between the two peptides. This is visualized by excitation of a fluorescent label on the substrate and product peptides and represented as peaks within the analysis software.
(§2) The Desktop Profiler utilizes the same principal as the LC 3000 for calculating percentage conversion of a substrate to product. Caliper Life Sciences provided proprietary flash frozen pre-made 384 well plates containing selected kinases. Each column in the 384 well plate contained a particular selected kinase. A second plate, the ‘substrate plate’ contained a mix of fluorescently labeled peptide substrate and ATP. These were arranged in columns so that transfer for substrate plate to enzyme plate provided the correct enzyme with the correct substrate/ATP concentration.
(§3) Compounds were added to a thawed enzyme plate in the desired format, in single concentrations. Reactions were initiated by transfer of the ubstrate/ATP mix from the substrate plate. The enzyme plate was incubated for 90 mins at 25 °C. The reaction was stopped by addition of […] of Stop Buffer (100 mM HEPES pH 7.5, 0.015% Brij-35, 10 mM EDTA (Sigma, E7889)).
(§4) Plates were read in a manner identical to that of the LC3000, and the ratio between substrate and product peaks provided the activity of the enzyme in that well. This was best represented by a plate heat map which colors each well by percent inhibition as compared to positive and negative controls (no inhibitors and no ATP respectively).

CDK2/cyclinE(h) = target: T2, CDK2/cyclinE(h) (Homo sapiens, UniProt P24941); format: biochemical
T2 construct: purchased Caliper Life Sciences
Description: as §1, §2, §3, §4

FGFR4(h) = target: T3, FGFR4(h) (Homo sapiens, UniProt P22455); format: biochemical
T3 construct: purchased Caliper Life Sciences
Description: as §1, §2, §3, §4

IRAK4(h) = target: T4, IRAK4(h) (Homo sapiens, UniProt Q9NWZ3); format: biochemical
T4 construct: purchased Caliper Life Sciences
T4 sequence (Q9NWZ3 1-460): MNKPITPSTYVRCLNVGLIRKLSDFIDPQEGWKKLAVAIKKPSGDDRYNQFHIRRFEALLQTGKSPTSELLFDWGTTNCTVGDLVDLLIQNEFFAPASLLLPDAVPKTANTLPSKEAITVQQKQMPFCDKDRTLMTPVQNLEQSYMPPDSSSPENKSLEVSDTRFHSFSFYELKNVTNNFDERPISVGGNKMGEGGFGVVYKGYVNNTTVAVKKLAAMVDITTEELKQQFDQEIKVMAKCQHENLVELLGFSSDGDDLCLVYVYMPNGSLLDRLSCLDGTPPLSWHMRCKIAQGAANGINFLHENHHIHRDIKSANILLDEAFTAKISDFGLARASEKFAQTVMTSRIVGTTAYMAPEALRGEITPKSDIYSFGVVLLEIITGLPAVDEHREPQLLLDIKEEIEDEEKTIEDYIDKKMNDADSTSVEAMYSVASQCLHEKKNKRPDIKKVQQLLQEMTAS
Description: as §1, §2, §3, §4

KDR(h) = target: T5, KDR(h) (Homo sapiens, UniProt P35968); format: biochemical
T5 construct: purchased Caliper Life Sciences
Description: as §1, §2, §3, §4

NEK2(h) = target: T6, NEK2(h) (Homo sapiens, UniProt P51955); format: biochemical
T6 construct: purchased Caliper Life Sciences
T6 sequence (P51955 1-445): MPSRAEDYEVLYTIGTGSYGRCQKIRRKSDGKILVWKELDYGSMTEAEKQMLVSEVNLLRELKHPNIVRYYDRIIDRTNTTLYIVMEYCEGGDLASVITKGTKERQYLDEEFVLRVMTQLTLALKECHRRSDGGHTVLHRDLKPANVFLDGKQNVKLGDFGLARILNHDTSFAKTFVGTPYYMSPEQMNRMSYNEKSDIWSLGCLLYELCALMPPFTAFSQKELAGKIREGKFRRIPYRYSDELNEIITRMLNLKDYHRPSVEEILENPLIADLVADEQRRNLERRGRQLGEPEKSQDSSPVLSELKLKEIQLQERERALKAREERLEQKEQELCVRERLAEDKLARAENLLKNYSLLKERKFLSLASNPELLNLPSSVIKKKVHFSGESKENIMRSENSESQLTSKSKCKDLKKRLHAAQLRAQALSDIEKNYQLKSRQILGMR
Description: as §1, §2, §3, §4

PDK1(h) = target: T7, PDK1(h) (Homo sapiens, UniProt O15530); format: biochemical
T7 construct: purchased Caliper Life Sciences
T7 sequence (O15530 1-556): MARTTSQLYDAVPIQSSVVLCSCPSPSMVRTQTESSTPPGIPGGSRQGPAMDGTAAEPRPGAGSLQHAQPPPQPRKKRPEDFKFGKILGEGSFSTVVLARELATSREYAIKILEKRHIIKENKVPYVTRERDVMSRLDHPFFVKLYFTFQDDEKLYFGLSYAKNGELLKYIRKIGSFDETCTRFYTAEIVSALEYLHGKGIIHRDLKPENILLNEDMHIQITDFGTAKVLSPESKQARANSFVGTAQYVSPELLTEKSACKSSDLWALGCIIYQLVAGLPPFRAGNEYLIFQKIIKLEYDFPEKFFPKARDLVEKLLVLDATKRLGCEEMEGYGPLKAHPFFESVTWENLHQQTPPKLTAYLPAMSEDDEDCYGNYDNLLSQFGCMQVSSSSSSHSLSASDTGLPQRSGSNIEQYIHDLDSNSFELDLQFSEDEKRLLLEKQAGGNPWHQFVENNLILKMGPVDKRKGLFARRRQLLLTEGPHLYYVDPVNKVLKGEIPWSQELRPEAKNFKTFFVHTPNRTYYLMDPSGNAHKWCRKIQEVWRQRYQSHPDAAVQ
Description: as §1, §2, §3, §4

Ret(h) = target: T8, Ret(h) (Homo sapiens, UniProt P07949); format: biochemical
T8 construct: purchased Caliper Life Sciences
Description: as §1, §2, §3, §4

Tie2(R849W)(h) = target: T9, Tie2(R849W)(h) (Homo sapiens, UniProt Q02763, R849W); format: biochemical
T9 construct: purchased Caliper Life Sciences
Description: as §1, §2, §3, §4

Tie2(h) = target: T10, Tie2(h) (Homo sapiens, UniProt Q02763); format: biochemical
T10 construct: purchased Caliper Life Sciences
Description: as §1, §2, §3, §4

ZIPK(h) = target: T11, ZIPK(h) (Homo sapiens, UniProt O43293); format: biochemical
T11 construct: purchased Caliper Life Sciences
Description: as §1, §2, §3, §4

AMPK(r) = format: biochemical, rat
Description: as §1, §2, §3, §4

T9 sequence (Q02763 23-1124 R849W): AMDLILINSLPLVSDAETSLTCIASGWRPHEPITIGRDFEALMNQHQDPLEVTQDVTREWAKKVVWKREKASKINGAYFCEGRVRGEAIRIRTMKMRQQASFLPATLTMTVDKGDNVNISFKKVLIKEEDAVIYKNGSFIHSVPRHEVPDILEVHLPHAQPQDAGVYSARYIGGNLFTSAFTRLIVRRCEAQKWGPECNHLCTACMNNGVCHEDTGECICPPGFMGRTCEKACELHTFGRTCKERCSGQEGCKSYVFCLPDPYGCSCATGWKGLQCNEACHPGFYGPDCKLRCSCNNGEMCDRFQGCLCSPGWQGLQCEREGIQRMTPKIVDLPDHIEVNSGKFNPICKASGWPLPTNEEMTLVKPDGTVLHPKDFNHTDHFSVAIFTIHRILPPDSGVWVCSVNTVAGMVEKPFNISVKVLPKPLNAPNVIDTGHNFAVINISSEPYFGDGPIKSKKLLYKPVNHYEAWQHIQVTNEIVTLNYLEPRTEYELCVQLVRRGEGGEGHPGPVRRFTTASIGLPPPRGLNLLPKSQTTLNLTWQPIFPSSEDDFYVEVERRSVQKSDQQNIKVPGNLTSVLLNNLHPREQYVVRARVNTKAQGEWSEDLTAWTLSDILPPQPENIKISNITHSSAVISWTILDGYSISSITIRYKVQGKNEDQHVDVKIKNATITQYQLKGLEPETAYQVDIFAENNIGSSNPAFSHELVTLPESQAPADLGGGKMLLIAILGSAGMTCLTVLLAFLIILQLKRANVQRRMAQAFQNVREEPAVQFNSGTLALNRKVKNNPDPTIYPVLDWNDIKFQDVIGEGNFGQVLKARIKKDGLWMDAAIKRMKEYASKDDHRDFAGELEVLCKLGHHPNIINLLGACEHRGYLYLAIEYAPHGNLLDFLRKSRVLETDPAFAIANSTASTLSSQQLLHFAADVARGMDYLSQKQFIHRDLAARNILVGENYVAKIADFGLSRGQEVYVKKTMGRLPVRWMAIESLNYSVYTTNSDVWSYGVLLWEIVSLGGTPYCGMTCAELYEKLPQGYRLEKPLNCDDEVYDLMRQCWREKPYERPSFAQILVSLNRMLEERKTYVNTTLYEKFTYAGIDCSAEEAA
T3 sequence (P22455 22-802): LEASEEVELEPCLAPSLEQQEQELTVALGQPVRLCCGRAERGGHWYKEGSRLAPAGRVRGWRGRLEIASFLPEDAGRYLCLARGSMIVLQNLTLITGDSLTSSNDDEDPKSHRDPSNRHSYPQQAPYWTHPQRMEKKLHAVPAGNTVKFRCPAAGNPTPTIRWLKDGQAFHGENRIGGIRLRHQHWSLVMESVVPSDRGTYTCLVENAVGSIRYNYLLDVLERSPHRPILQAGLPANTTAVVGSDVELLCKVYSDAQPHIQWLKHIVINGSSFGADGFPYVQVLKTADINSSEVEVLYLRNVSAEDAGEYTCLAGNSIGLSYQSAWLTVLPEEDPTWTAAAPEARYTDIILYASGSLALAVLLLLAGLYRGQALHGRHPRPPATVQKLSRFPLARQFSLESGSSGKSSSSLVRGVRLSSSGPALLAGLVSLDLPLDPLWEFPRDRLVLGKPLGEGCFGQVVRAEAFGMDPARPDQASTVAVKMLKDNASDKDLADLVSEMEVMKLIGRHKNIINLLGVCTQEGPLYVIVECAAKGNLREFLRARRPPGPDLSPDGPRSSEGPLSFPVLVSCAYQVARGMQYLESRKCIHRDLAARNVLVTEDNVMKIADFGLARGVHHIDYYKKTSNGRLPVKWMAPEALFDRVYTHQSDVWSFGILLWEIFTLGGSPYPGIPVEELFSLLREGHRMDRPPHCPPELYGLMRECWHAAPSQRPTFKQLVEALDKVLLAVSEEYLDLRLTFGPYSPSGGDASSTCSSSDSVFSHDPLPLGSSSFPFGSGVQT
T10 sequence (Q02763 23-1124): as the sequence (Q02763 23-1124 R849W) above, with W827R counted along it
T8 sequence (P07949 29-1114): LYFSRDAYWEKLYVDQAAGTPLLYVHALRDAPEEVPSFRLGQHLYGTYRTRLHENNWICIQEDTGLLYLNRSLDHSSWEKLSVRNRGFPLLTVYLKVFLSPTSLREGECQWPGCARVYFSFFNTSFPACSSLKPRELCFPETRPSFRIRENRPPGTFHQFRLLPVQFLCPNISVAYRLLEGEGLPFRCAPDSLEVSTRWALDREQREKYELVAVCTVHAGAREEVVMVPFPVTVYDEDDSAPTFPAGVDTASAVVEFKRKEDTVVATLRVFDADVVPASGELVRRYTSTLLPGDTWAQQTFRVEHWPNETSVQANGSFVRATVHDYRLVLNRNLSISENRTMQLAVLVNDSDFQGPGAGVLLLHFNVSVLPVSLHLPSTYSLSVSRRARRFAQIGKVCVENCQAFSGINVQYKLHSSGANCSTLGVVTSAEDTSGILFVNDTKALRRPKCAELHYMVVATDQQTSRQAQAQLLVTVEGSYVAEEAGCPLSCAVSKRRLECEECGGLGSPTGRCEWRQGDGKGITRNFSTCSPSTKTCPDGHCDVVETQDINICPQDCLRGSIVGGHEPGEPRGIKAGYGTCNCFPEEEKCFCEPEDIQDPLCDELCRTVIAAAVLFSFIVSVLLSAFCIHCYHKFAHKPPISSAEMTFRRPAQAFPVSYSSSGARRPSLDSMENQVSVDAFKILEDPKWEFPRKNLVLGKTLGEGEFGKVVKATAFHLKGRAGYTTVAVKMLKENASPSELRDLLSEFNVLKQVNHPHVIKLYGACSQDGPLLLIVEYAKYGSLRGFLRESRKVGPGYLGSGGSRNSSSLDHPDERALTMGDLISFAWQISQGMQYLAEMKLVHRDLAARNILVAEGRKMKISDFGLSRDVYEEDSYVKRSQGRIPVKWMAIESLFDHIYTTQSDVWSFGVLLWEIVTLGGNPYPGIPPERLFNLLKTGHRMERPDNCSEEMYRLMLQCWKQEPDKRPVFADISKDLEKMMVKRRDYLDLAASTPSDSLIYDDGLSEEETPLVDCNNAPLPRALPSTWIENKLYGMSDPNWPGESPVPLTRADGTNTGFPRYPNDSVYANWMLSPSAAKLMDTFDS
T5 sequence (P35968 20-1356): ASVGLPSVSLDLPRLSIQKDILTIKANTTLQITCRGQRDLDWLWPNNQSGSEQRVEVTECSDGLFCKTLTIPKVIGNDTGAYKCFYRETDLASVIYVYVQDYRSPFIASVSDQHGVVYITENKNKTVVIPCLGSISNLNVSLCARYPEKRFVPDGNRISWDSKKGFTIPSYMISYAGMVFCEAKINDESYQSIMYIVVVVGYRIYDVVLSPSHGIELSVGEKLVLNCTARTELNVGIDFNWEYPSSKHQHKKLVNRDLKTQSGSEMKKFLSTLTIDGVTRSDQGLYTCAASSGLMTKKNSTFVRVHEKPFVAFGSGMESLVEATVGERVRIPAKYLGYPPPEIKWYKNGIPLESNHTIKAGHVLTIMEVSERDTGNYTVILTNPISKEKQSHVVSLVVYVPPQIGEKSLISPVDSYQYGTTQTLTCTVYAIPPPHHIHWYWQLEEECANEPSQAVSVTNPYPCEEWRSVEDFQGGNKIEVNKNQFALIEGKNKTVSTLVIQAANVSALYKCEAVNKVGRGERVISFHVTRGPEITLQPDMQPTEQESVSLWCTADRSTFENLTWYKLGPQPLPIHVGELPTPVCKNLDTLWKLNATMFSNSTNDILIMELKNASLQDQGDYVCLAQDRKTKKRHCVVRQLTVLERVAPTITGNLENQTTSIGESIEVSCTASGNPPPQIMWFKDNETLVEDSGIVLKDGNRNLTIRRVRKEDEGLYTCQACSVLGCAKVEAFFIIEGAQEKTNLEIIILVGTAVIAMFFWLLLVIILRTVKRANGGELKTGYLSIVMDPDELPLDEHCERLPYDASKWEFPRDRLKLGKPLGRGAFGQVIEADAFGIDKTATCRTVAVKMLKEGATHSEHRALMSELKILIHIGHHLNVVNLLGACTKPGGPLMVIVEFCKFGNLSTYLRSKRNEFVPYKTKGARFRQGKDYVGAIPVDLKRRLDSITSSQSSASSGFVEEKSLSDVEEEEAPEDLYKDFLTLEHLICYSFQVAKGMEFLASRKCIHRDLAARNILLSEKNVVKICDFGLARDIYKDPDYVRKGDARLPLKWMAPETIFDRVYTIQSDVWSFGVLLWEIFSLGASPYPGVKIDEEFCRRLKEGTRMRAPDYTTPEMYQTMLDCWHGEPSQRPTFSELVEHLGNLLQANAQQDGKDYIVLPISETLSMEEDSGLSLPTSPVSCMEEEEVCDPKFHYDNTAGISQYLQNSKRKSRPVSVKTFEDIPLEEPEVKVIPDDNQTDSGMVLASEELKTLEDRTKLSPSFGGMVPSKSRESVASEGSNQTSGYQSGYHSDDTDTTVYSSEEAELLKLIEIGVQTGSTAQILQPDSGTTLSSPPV
T11 sequence (O43293 whole entry): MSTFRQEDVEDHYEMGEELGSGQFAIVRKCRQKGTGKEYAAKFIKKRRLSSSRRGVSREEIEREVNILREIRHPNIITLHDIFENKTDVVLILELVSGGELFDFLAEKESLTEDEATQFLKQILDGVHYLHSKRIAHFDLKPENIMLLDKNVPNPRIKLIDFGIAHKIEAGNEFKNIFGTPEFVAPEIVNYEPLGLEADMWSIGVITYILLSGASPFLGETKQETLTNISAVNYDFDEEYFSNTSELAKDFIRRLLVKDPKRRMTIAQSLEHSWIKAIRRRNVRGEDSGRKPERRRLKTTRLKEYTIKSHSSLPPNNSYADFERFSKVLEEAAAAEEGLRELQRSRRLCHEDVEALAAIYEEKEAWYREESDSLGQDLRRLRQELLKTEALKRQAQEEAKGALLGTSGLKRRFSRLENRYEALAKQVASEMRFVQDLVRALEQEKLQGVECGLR

NC(=O)[C@H]1[C@H]2C[C@H]3[C@H]1Nc1nc(ncc1F)Nc1cccc(c1)NC(=O)CS[C@@H]3C2 [Example 27]
% inhibition Abl(T315I)(h) (Abl(T315I)(h)): 1%
% inhibition CDK2/cyclinE(h) (CDK2/cyclinE(h)): 60%
% inhibition FGFR4(h) (FGFR4(h)): 96%
% inhibition IRAK4(h) (IRAK4(h)): 12%
% inhibition KDR(h) (KDR(h)): 7%
% inhibition NEK2(h) (NEK2(h)): 113%
% inhibition PDK1(h) (PDK1(h)): 86%
% inhibition Ret(h) (Ret(h)): 4%
% inhibition Tie2(R849W)(h) (Tie2(R849W)(h)): 17%
% inhibition Tie2(h) (Tie2(h)): 2%
% inhibition ZIPK(h) (ZIPK(h)): 97%
% inhibition AMPK(r) (AMPK(r)): 71%
